In PMC11292843 (ACS Omega, 2024):

Tests used:
[1] = target: T1, hPTP1B1–400 (Homo sapiens, UniProt P18031); assay: PTP1B inhibition assay (pNPP, spectrocolorimetric), long form
T1 sequence (P18031 1-400): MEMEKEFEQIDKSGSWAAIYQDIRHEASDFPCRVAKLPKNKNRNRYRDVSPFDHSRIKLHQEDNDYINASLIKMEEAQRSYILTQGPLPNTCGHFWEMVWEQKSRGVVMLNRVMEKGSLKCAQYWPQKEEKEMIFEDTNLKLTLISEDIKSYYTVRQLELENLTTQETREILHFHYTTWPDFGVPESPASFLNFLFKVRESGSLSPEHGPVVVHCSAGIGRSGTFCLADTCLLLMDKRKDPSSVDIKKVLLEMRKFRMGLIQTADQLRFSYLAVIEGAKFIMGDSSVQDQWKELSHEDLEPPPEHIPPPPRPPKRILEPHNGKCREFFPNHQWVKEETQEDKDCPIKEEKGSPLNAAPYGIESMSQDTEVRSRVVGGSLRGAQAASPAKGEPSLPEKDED

[2] = target: T1, hPTP1B1–400; assay: Enzyme kinetics (Lineweaver–Burk, varying pNPP); conditions: for inhibition mechanism: hPTP1B1–400, best fit of inhibition models; for Km / Vmax: hPTP1B1–400, pNPP 0.1–0.5 mM
[3] = target: T2, hTCPTP (Homo sapiens, UniProt P17706); assay: Selectivity assay against TCPTP; format: biochemical
T2 construct: His tag (vector pET-28a(+)-TEV, with TEV site); made in house; host or cells: E. coli BL21 (DE3)
T2 sequence (P17706 1-415): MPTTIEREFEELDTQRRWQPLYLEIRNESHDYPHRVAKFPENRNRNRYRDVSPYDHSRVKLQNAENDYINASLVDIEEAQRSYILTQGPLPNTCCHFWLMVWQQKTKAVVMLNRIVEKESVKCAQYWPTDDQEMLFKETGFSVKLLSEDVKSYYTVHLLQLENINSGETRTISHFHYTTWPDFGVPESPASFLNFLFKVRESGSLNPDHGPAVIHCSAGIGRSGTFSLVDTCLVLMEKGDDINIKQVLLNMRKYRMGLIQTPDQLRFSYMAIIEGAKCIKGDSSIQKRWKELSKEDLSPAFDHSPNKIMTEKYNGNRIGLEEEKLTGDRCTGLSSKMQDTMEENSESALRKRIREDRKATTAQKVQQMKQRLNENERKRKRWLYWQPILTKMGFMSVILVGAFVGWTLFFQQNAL
Procedure: A spectrocolorimetric method previously described[3] was employed to test the inhibitory effect of the new compounds against PTP1B. […] Enzyme solutions containing pNPP and inhibitors were incubated at 37 °C for 15 min. […] The percentage of inhibition was plotted as a function of the inhibitor concentrations.
Similarly to the IC50, the assays to determine the selectivity were carried out in the same experimental conditions using hPTP1B1–400 and hTCPTP.
The expression vector pET-28a(+)-TEV was obtained from Invitrogen (Waltham, MA, USA). E. coli strain DH5α and BL21 (DE3) were purchased from Invitrogen (Waltham, MA, USA). The gene PTPN2 was subcloned into the expression vector pET-28a (+)-TEV, using the NDEI and BAMHI cloning sites. The construction pET-28A(+)-TEV–PTPN2 was transformed into E. coli strain BL21 (DE3). Transformed E. coli cells were grown in LB media containing kanamycin ([…]) at 37 °C for 6 h with continuous agitation (250 rpm). Once the cultures reached an A600 of 0.6 (about 6 h), protein expression was induced with 1 mM IPTG at 37 °C, 250 rpm for 8 h. After centrifuge (4500 rpm, 15 min, 4 °C), the grown and IPTG-induced cultures and bacterial pellet were resuspended in Tris buffer (pH 6.8) and lysed by sonication (10 cycles, intervals of 30 s) in an ice–water bath with an ultrasonic processor (Cole-Parmer, Vernon Hills, IL, USA). […] The column was equilibrated with three column volumes of 50 mM Tris, pH 6.8. His-tagged protein was eluted with Tris 50 mM and 300 mM imidazole with one column volume. […] Fractions containing hTCPTP were dialyzed in 50 mM Tris, pH 6.8. The purity of the protein was followed by SDS-polyacrylamide gel electrophoresis (SDS-PAGE) using a 12% resolving gel.

[4] = target: T3, hPTP1B1–285 (Homo sapiens, UniProt P18031); assay: PTP1B inhibition assay (pNPP, spectrocolorimetric), short form
T3 sequence (P18031 1-285): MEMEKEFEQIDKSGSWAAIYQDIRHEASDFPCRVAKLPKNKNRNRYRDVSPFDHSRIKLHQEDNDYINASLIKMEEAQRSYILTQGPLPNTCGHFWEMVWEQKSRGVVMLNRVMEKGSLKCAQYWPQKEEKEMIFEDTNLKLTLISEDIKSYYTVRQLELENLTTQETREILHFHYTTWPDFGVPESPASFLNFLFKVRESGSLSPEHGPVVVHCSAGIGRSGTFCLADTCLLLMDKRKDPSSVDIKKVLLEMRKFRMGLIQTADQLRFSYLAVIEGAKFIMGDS

[5] = IC50 ± SD hPTP1B1–400, hPTP1B 66 nM, pNPP 0.5 mM, 37 °C, 15 min

SMILES | IC50 [1, 5] [µM] | Ki [2] [µM] | inhibition mechanism [2] | Km [2] [µM] | Vmax [2] [mM/min] | also measured
C[C@H](CCC(=O)O)C1CCC2C3CC[C@@H]4C[C@](O)(CNCc5ccc(C(F)(F)F)cc5)CC[C@]4(C)C3CC[C@@]21C.Cl (stereo partly drawn) [compound 6n, 1-((3S,5R,10S,13R)-17-((R)-4-carboxybutan-2-yl)-3-hydroxy-10,13-dimethylhexadecahydro-1H-cyclopenta[a]phenanthren-3-yl)-N-(4-(trifluoromethyl)benzyl)methanaminium Chloride] | 5.3 ± 0.2 | 3.4 ± 0.3 | uncompetitive inhibition | 520 ± 70 | 0.73 ± 0.06 | IC50 ([1]; PTP1B IC50 ± SD, selectivity assay, hPTP1B1–400): 5.3 ± 0.2 µM; fold more potent than LA ([1]; hPTP1B1–400 IC50 compared with LA): 3 fold; fold higher potency for hPTP1B1–400 over hPTP1B1–285 ([1]; ratio of IC50 values, long vs short form): ~3 fold; IC50 ([3]; concentrations tested 1 to 400 μM, read-out: TCPTP IC50 ± SD): > 400 µM; fold selectivity for PTP1B over TCPTP ([3]; hPTP1B1–400 vs hTCPTP): around 75 fold; selectivity (PTP1B over TCPTP) ([3]; hPTP1B1–400 vs hTCPTP): Yes; IC50 [4]: 16.3 ± 0.9 µM
COc1cccc(CNC[C@]2(O)CC[C@]3(C)C4CC[C@@]5(C)C(CCC5[C@H](C)CCC(=O)O)C4CC[C@@H]3C2)c1.Cl (stereo partly drawn) [compound 6c, 1-((3S,5R,10S,13R)-17-((R)-4-carboxybutan-2-yl)-3-hydroxy-10,13-dimethylhexadecahydro-1H-cyclopenta[a]phenanthren-3-yl)-N-(3-methoxybenzyl)methanaminium Chloride] | 10.5 ± 0.2 | 4 ± 0.2 | Uncompetitive | 380 ± 20 | 0.64 ± 0.02 | 
C[C@H](CCC(=O)O)C1CCC2C3CC[C@@H]4C[C@](O)(CNCc5cccc(C(=O)O)c5)CC[C@]4(C)C3CC[C@@]21C.Cl (stereo partly drawn) [compound 6k, N-(3-carboxybenzyl)-1-((3S,5R,10S,13R)-17-((R)-4-carboxybutan-2-yl)-3-hydroxy-10,13-dimethylhexadecahydro-1H-cyclopenta[a]phenanthren-3-Yl)methanaminium Chloride] | 32.3 ± 1.2 | 11 ± 1 | Uncompetitive | 480 ± 60 | 0.80 ± 0.06 | 
C[C@H](CCC(=O)O)C1CCC2C3CC[C@@H]4C[C@](O)(CNCc5ccc(F)cc5)CC[C@]4(C)C3CC[C@@]21C (stereo partly drawn) [compound 6h, 1-((3S,5R,10S,13R)-17-((R)-4-carboxybutan-2-yl)-3-hydroxy-10,13-dimethylhexadecahydro-1H-cyclopenta[a]phenanthren-3-yl)-N-(4-fluorobenzyl)methanaminium Chloride] | > 100 |  |  |  |  | 
COc1ccc(CNC[C@]2(O)CC[C@]3(C)C4CC[C@@]5(C)C(CCC5[C@H](C)CCC(=O)O)C4CC[C@@H]3C2)cc1.Cl (stereo partly drawn) [compound 6d, 1-((3S,5R,10S,13R)-17-((R)-4-carboxybutan-2-yl)-3-hydroxy-10,13-dimethylhexadecahydro-1H-cyclopenta[a]phenanthren-3-yl)-N-(4-methoxybenzyl)methanaminium Chloride] | 26.6 ± 0.9 | 19.7 ± 2.6 | Uncompetitive | 780 ± 90 | 1.10 ± 0.09 | 
C[C@H](CCC(=O)O)C1CCC2C3CC[C@@H]4C[C@](O)(CNCc5ccc(C(=O)O)cc5)CC[C@]4(C)C3CC[C@@]21C.Cl (stereo partly drawn) [compound 6l, N-(4-carboxybenzyl)-1-((3S,5R,10S,13R)-17-((R)-4-carboxybutan-2-yl)-3-hydroxy-10,13-dimethylhexadecahydro-1H-cyclopenta[a]phenanthren-3-yl)methanaminium Chloride] | 12.6 ± 0.7 | 10.7 ± 1.6 | Uncompetitive | 950 ± 150 | 1.41 ± 0.17 | 

The next lines start with results.

IC50 [1, 5] [µM] | SMILES | Ki [2] [µM] | inhibition mechanism [2] | Km [2] [µM] | Vmax [2] [mM/min] | also measured
34.3 ± 0.5 | Cc1ccc(CNC[C@]2(O)CC[C@]3(C)C4CC[C@@]5(C)C(CCC5[C@H](C)CCC(=O)O)C4CC[C@@H]3C2)cc1 (stereo partly drawn) [compound 6f, 1-((3S,5R,10S,13R)-17-((R)-4-carboxybutan-2-yl)-3-hydroxy-10,13-dimethylhexadecahydro-1H-cyclopenta[a]phenanthren-3-yl)-N-(4-methylbenzyl)methanaminium Chloride] |  |  |  |  | IC50 [4]: 46 ± 1.7 µM
> 100 | C[C@H](CCC(=O)O)C1CCC2C3CC[C@@H]4C[C@](O)(CNCc5cccc(Cl)c5)CC[C@]4(C)C3CC[C@@]21C (stereo partly drawn) [compound 6i, 1-((3S,5R,10S,13R)-17-((R)-4-carboxybutan-2-yl)-3-hydroxy-10,13-dimethylhexadecahydro-1H-cyclopenta[a]phenanthren-3-yl)-N-(3-chlorobenzyl)methanaminium Chloride] |  |  |  |  | 
33.1 ± 2.7 | C[C@H](CCC(=O)O)C1CCC2C3CC[C@@H]4C[C@](O)(CNCc5ccccc5)CC[C@]4(C)C3CC[C@@]21C (stereo partly drawn) [compound 6a, N-Benzyl-1-((3S,5R,10S,13R)-17-((R)-4-carboxybutan-2-yl)-3-hydroxy-10,13-dimethylhexadecahydro-1H-cyclopenta[a]phenanthren-3-yl)methanaminium Chloride] |  |  |  |  | 
26.9 ± 3.5 | C[C@H](CCC(=O)O)C1CCC2C3CC[C@@H]4C[C@](O)(CNCc5ccc(O)cc5)CC[C@]4(C)C3CC[C@@]21C (stereo partly drawn) [compound 6b, 1-((3S,5R,10S,13R)-17-((R)-4-carboxybutan-2-yl)-3-hydroxy-10,13-dimethylhexadecahydro-1H-cyclopenta[a]phenanthren-3-yl)-N-(4-hydroxybenzyl)methanaminium Chloride] |  |  |  |  | 
> 100 | C[C@H](CCC(=O)O)C1CCC2C3CC[C@@H]4C[C@](O)(CNCc5ccc(Cl)cc5)CC[C@]4(C)C3CC[C@@]21C (stereo partly drawn) [compound 6j, 1-((3S,5R,10S,13R)-17-((R)-4-carboxybutan-2-yl)-3-hydroxy-10,13-dimethylhexadecahydro-1H-cyclopenta[a]phenanthren-3-yl)-N-(4-chlorobenzyl)methanaminium Chloride] |  |  |  |  | 
> 100 | C[C@H](CCC(=O)O)C1CCC2C3CC[C@@H]4C[C@](O)(CNCc5cccc(F)c5)CC[C@]4(C)C3CC[C@@]21C (stereo partly drawn) [compound 6g, 1-((3S,5R,10S,13R)-17-((R)-4-carboxybutan-2-yl)-3-hydroxy-10,13-dimethylhexadecahydro-1H-cyclopenta[a]phenanthren-3-yl)-N-(3-fluorobenzyl)methanaminium Chloride] |  |  |  |  | 
16.3 ± 0.5 | Cc1cccc(CNC[C@]2(O)CC[C@]3(C)C4CC[C@@]5(C)C(CCC5[C@H](C)CCC(=O)O)C4CC[C@@H]3C2)c1 (stereo partly drawn) [compound 6e, 1-((3S,5R,10S,13R)-17-((R)-4-carboxybutan-2-yl)-3-hydroxy-10,13-dimethylhexadecahydro-1H-cyclopenta[a]phenanthren-3-yl)-N-(3-methylbenzyl)methanaminium Chloride] |  |  |  |  | IC50 [4]: 53.8 ± 2.7 µM
